The values below come from DBAASP.

Molecules are shown by their SMILES. In brackets after ≈: the same amount, converted by molar mass.

As usually defined, the MIC is the lowest concentration found to suppress growth. A lower MIC goes with a more susceptible organism.

Among the test systems are Botrytis cinerea; Proteus vulgaris; Escherichia coli; Pseudomonas aeruginosa; Fusarium verticillioides; Acinetobacter baumannii; Escherichia coli K-12; Campylobacter jejuni; Staphylococcus aureus; Citrobacter sp.; Enterobacter cloacae; Streptococcus pneumoniae; Klebsiella pneumoniae.
Common to all, as to assay: ≥ marks a high value that may be exact or a test limit, other limits are often not marked, values filed in µg/mL are converted to µM
Assay [1] has as its system Staphylococcus epidermidis.
The test system of assay [2] is Bacillus subtilis KCTC 1918.
For assay [3], the system named is Salmonella typhimurium KCTC 1926.
The subject of assay [4] is Aspergillus flavus KCTC 9471.
For assay [5], the system named is Escherichia coli KCTC 1682.
In assay [6] the test system is Candida albicans KCTC 7270.
Assay [7] relates to Pseudomonas aeruginosa KCTC 1637.
For assay [8], the system named is Listeria monocytogenes KCTC 3710.
Assay [9] concerns Staphylococcus epidermidis KCTC 1917.
The subject of assay [10] is Aspergillus fumigatus KCTC 6145.
Assay [11] has as its system Trichosporon beigelii KCTC 7707.
Assay [12] relates to Escherichia coli O157:H7 ATCC 43895.
The subject of assay [13] is Saccharomyces cerevisiae KCTC 7296.
The subject of assay [14] is Staphylococcus aureus KCTC 1621.
Assay [15] concerns Klebsiella pneumoniae NCTC 13442.
Assay [16] concerns Campylobacter jejuni ATCC 33292.
Assay [17] relates to Staphylococcus aureus USA 300.
Assay [18] relates to Staphylococcus aureus RN4220.
In assay [19] the test system is Acinetobacter baumannii Q13-0717.
Assay [20] has as its system Campylobacter jejuni NCTC 11351.
Assay [21] deals with Pseudomonas aeruginosa Q14-0890.
Assay [22] concerns Staphylococcus aureus ATCC 29213.
The subject of assay [23] is Pseudomonas aeruginosa PAO1.
Assay [24] concerns Klebsiella pneumoniae ATCC 700603.
Assay [25] relates to Staphylococcus aureus NCTC 12493.
For assay [26], the system named is Campylobacter jejuni NCTC 11161.
The subject of assay [27] is Staphylococcus aureus MRSA-15.
In assay [28] the test system is Pseudomonas aeruginosa Q14-0208.
The test system of assay [29] is Pseudomonas aeruginosa ATCC 27853.
The subject of assay [30] is Staphylococcus aureus Q14-0320.
For assay [31], the system named is Enterococcus faecalis JH-2-2.
Assay [32] concerns Salmonella typhimurium SL1344.
In assay [33] the test system is Klebsiella pneumoniae Q14-0285.
Assay [34] has as its system Staphylococcus aureus ATCC 33591.
The subject of assay [35] is Listeria monocytogenes NCTC 11994.
Assay [36] concerns Pseudomonas aeruginosa ATCC 15442.
Assay [37] deals with Acinetobacter baumannii ATCC 15308.
Assay [38] relates to Escherichia coli ATCC 25922.
Assay [39] concerns Staphylococcus aureus ATCC 25923.
For assay [40], the system named is Staphylococcus aureus USA 300 LAC.
Assay [41] deals with Klebsiella pneumoniae ATCC 13883.

On to `CC[C@H](C)[C@H](NC(=O)[C@H](CCCCN)NC(=O)[C@H](CO)NC(=O)[C@H](Cc1ccccc1)NC(=O)[C@H](CC(C)C)NC(=O)[C@H](CCCCN)NC(=O)[C@H](CCC(=O)O)NC(=O)[C@H](CC(C)C)NC(=O)[C@H](CCCN=C(N)N)NC(=O)[C@H](CCCCN)NC(=O)[C@H](Cc1ccccc1)NC(=O)[C@@H](NC(=O)[C@H](CCCCN)NC(=O)[C@H](CCCCN)NC(=O)[C@H](C)N)C(C)C)C(=O)N[C@@H](CCC(N)=O)C(=O)N[C@@H](CC(N)=O)C(=O)N[C@@H](CC(=O)O)C(=O)N[C@@H](CCCCN)C(N)=O` [AKKVFKRLEKLFSKIQNDK], for which the MIC in assay [1] is 6.25 µM (≈ 14.5 µg/mL); in assay [2], 3.13 µM (≈ 7.26 µg/mL); in assay [3], 1.56 µM (≈ 3.62 µg/mL); in the assay on Botrytis cinerea, 12.5 µM (≈ 29 µg/mL); in assay [4], at least 50 µM; in [5] it was 12.5 µM (≈ 29 µg/mL). The minimal inhibitory concentration (MIC) in [6] turned out to be 25 µM (≈ 58 µg/mL); in assay [7], 1.56 µM (≈ 3.62 µg/mL); in assay [8] it was 6.25 µM (≈ 14.5 µg/mL); against Proteus vulgaris it was 4.42 µM (≈ 10.3 µg/mL); against Escherichia coli, 3.13 µM (≈ 7.26 µg/mL); in assay [9], 3.12 µM (≈ 7.25 µg/mL). In addition, the MIC in assay [10] is at least 50 µM; in the assay with Pseudomonas aeruginosa, 6.25 µM (≈ 14.5 µg/mL); in assay [11], 3.13 µM (≈ 7.26 µg/mL); in assay [12] it was 12.5 µM (≈ 29 µg/mL); in [13], 25 µM (≈ 58 µg/mL); in the assay with Fusarium verticillioides, 25 µM (≈ 58 µg/mL). This molecule also returned an MIC in assay [14] of 12.5 µM (≈ 29 µg/mL).
Regarding `CC[C@H](C)[C@H](NC(=O)[C@H](CCCN=C(N)N)NC(=O)[C@@H](NC(=O)[C@H](CC(C)C)NC(=O)[C@H](CC(C)C)NC(=O)[C@H](CCCCN)NC(=O)[C@H](CC(N)=O)NC(=O)[C@@H](NC(=O)[C@H](CCCN=C(N)N)NC(=O)[C@H](CCCN=C(N)N)NC(=O)[C@H](CC(C)C)NC(=O)[C@@H](N)Cc1cnc[nH]1)[C@@H](C)CC)[C@@H](C)O)C(=O)NCC(=O)N[C@@H](CC(C)C)C(=O)N[C@@H](Cc1ccc(O)cc1)C(=O)N[C@@H](CCCN=C(N)N)C(=O)N[C@@H](Cc1cnc[nH]1)C(=O)N[C@@H](C)C(=O)N[C@@H](Cc1ccccc1)C(=O)NCC(=O)O` [HLRRINKLLTRIGLYRHAFG], the minimal inhibitory concentration (MIC) with Acinetobacter baumannii is 6.57 µM (≈ 16 µg/mL); in assay [15] it was at least 52.6 µM; in assay [16], 13.1 µM (≈ 32 µg/mL); in assay [17], at least 105 µM; against Escherichia coli K-12, 26.3 µM (≈ 64 µg/mL); in assay [18], 13.1 µM (≈ 32 µg/mL). For the same molecule, the minimum inhibitory concentration (MIC) was 3.29 µM (≈ 8 µg/mL) in assay [19]; at least 52.6 µM in [20]; 26.3 µM (≈ 64 µg/mL) in [21]; over 52.6 µM with Escherichia coli; over 52.6 µM in assay [22]; 52.6 µM (≈ 128 µg/mL) in assay [23]. Also, the MIC is 26.3 µM (≈ 64 µg/mL) in assay [24]; 26.3 µM (≈ 64 µg/mL) in [25]; 13.1 µM (≈ 32 µg/mL) in assay [26]; 13.1 µM (≈ 32 µg/mL) in assay [27]; 13.1 µM (≈ 32 µg/mL) in assay [28]; over 52.6 µM in [29]. The MIC in assay [30] is at least 52.6 µM; in assay [31], 13.1 µM (≈ 32 µg/mL); in assay [32], 13.1 µM (≈ 32 µg/mL); against Pseudomonas aeruginosa, 105 µM (≈ 256 µg/mL); with Campylobacter jejuni, at least 52.6 µM; in assay [33], 26.3 µM (≈ 64 µg/mL). Besides, the minimal inhibitory concentration (MIC) in assay [34] is at least 52.6 µM; in assay [35] it was 13.1 µM (≈ 32 µg/mL).
On to `NC(=O)[C@H](CCCN=C(N)N)NC(=O)[C@H](CCCN=C(N)N)NC(=O)[C@H](Cc1c[nH]c2ccccc12)NC(=O)[C@@H]1CCCN1C(=O)[C@H](Cc1c[nH]c2ccccc12)NC(=O)[C@H](CCCN=C(N)N)NC(=O)[C@@H]1CCCN1C(=O)[C@H](Cc1c[nH]c2ccccc12)NC(=O)[C@H](CCCN=C(N)N)NC(=O)[C@H](Cc1c[nH]c2ccccc12)NC(=O)[C@@H]1CCCN1C(=O)[C@H](CCCN=C(N)N)NC(=O)[C@@H](N)CCCN=C(N)N` [RRPWRWPRWPWRR], for which the MIC was 31.4 µM (≈ 62.5 µg/mL) against Staphylococcus aureus; 15.7 µM (≈ 31.2 µg/mL) in assay [36]; at least 126 µM in assay [37]; at least 126 µM in the assay on Citrobacter sp.; at least 126 µM in the assay with Enterobacter cloacae; 15.7 µM (≈ 31.2 µg/mL) in assay [38]. Further, the MIC in the assay with Streptococcus pneumoniae was 31.4 µM (≈ 62.5 µg/mL); in [39], 15.7 µM (≈ 31.2 µg/mL); with Klebsiella pneumoniae it was over 126 µM.
In the case of `CC[C@H](C)[C@H](NC(=O)[C@H](CCCN=C(N)N)NC(=O)[C@H](CCCN=C(N)N)NC(=O)[C@H](CC(C)C)NC(=O)[C@H](Cc1c[nH]c2ccccc12)NC(=O)[C@H](Cc1c[nH]c2ccccc12)NC(=O)[C@@H](N)Cc1c[nH]c2ccccc12)C(=O)N[C@@H](CCCN=C(N)N)C(N)=O` [WWWLRRIR], the MIC is 12.5 µM (≈ 15.9 µg/mL) in assay [17]; 12.5 µM (≈ 15.9 µg/mL) in assay [23]; 12.5 µM (≈ 15.9 µg/mL) in assay [40]; 25 µM (≈ 31.8 µg/mL) in [41]; 25 µM (≈ 31.8 µg/mL) in assay [38].
